“Also recorded” adds a separate entry of the source.
How the values were obtained:
[1] = system: chick embryo vitelline capillaries; test: Chick embryo vitelline capillary regression assay; format: in vivo; design: key to Vitelline capillary regression: +: Vascular reactivity; 0: No vascular reactivity; +/-: Equivocal reactivity
Experimental: Using the chick embryo vitelline capillaries assay, compounds were tested for their ability to induce capillary regression. Each compound was applied in 0.1 ml of 15% Ficol 400 and PBS onto the embryo, and vascular regression was assessed after 60 minutes.
The 3-day chick embryo consists of an embryonic disc from which numerous vessels emerge and return, forming a "FIG. 8"-shaped structure--the embryo in the center with vascular loops extending outward over both poles. […] Following a lag period of around 15 minutes, the constriction of continuity between capillary and secondary vessels, generally on the "venous" side, was observed. Continued pulsatile blood flow progressed, resulting in a "swelling" of the blind tube, followed by a pinching off of the remaining connection and formation of an enclosed vascular sac resembling a "blood island." This process progressed until only the largest vessels remained intact.

[2] = system: Xenopus tadpoles, stage 59-60; test: Xenopus tadpole assay; conditions: 10 μg/ml
rabbit NHE3 = rabbit NHE3 (Oryctolagus cuniculus, UniProt P26432); test: NHE3 inhibition, internal pH (BCECF-AM) in transfected PS120 fibroblasts
Sequence of rabbit NHE3 (P26432 30-832): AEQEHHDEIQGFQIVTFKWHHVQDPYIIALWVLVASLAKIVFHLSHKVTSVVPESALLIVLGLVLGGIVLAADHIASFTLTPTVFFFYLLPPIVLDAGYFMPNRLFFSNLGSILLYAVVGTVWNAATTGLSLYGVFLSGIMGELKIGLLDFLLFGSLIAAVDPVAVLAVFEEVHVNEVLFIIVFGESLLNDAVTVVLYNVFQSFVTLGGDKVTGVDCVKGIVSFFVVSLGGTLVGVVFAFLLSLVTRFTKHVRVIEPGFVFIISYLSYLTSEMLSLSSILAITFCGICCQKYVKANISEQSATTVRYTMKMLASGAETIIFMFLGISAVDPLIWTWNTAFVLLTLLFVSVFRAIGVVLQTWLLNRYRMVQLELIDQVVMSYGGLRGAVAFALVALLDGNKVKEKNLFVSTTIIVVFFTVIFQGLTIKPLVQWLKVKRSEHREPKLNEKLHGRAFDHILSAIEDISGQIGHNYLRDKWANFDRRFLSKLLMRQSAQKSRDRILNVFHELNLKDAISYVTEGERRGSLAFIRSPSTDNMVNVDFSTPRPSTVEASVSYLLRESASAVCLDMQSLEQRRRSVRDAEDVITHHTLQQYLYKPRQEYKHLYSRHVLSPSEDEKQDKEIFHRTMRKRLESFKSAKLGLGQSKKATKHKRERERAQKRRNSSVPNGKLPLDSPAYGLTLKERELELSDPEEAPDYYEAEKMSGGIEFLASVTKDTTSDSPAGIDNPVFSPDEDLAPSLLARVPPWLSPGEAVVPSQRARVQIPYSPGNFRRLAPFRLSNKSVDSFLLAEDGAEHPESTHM
Experimental: Internal pH was measured either following acid loading or in the absence of an acid-loading challenge, with the results shown in FIGS. 1A and 1B.
Specifically, PS120 fibroblasts transfected with rabbit NHE3 were grown in supplemented Dulbecco's-modified Eagle's medium as described by Levine et al., J. Biol. Chem. 268, 1993, 25527-25535. […] For cells not acid-preloaded, the actual internal pH value was monitored as a function of time following addition of squalamine, with the results depicted in FIG. 1B.
PS120 fibroblasts transfected with rabbit NHE3 were grown and acid preloaded by exposure to 40 mM NH4 Cl as described above in conjunction with FIGS. 1A and 1B. Internal cellular pH changes expressed as the rate of pH recovery as a function of restored extracellular sodium ion concentration following exposure to 10 μg/ml of the compound were assayed with the fluorescent dye BCECF-AM as described above.

B16 melanoma = test: Suppression of B16 melanoma growth in C57B mice; format: in vivo, mouse
Experimental: The growth of B16 melanoma in C57B mice is dependent upon neovascularization.
Using the growth of B16 melanoma cells in C57B mice, a recognized model for the evaluation of inhibitors of angiogenesis on the growth of cancers, the effects of subcutaneous, intraperitoneal and oral administration of squalamine were evaluated.
Animals were implanted with B16 melanoma followed by treatment with compound 1436 or 1256 administered in a combined schedule or separately. […] Thus, a combination of these two compounds achieves a theraputic benefit in tumors dependent on neovascularization that may prevent metastatic spread.

Mouse IV PK study = conditions: in vivo
Experimental: To assess clearance, a mouse IV PK study was performed for compound 319 and squalamine. The compound was administered i.v. and blood samples were taken every 10 minutes. The concentration of the administered steroid was determined by HPLC analysis.

human NHE1 = test: NHE1 inhibition, internal pH in PS120 fibroblasts expressing human NHE1; format: cell-based; conditions: 5 μg/ml squalamine, acid-preloaded
Experimental: (§1) PS120 fibroblasts transfected with rabbit or human NHEl were grown as described above.

[3] = system: chick chorioallantoic membrane capillaries; test: Chorioallantoic membrane (CAM) model, inhibition of capillary growth; format: in vivo; conditions: for Percentage positive, Assay 1 / Percentage positive, Assay 2 / Percentage positive, Mean: 3-day embryo
Source text: The growing capillaries within the chorioallantoic membrane model (CAM model) have been used as a system in which to evaluate the effect of agents on their potential to inhibit new vessel growth. Neovascularization occurs most aggressively over the first week of embryonic development. Thereafter capillary growth is characterized by principally "elongation" rather than "de novo" formation.
In the standard assay, agents are applied locally to a region of the embryo over which neovascularization will occur. Agents are assessed by their ability to inhibit this process, as evaluated by visual examination about 7 days after application. […] The assay utilized is described in detail in Auerbach et al., Pharm. Ther. 51, 1991, 1-11.

[4] = system: human epithelial cell line MCF 10A; test: Growth inhibition of epithelial cells in vitro; format: cell-based; conditions: 10 μg/ml
[5] = system: Xenopus tadpoles, stage 59-60; conditions: 10 μg/mL
human melanoma 1205Lu = test: Suppression of human melanoma in RAG-1 mice; format: in vivo
Source text: As apparent from FIG. 5, melanoma 120SLu develops aggressively in RAG-1 mice after implantation.

[6] = system: human microvascular cells; test: Inhibition of endothelial cell cord formation in vitro; format: cell-based; conditions: concentrations inhibiting cord formation
Source text: Endothelial cells have the capacity in vitro to form tubular aggregates resembling capillaries in various early stages of formation. This conversion occurs under relatively specific conditions, in which essential growth factors along with an effective substratum are provided. It has been shown that both the interaction of growth factors with the endothelial cell and its attachment to a substratum activate the NHE. The activation of this exchanger is believed to be required for subsequent morphologic transformation of the endothelial cell into a multicellular tubular structure.
To assess the effect of compounds on the cord-like structures formed by human microvascular cells when plated in the presence of VEGF (Vascular Endothelial Growth Factor) and basic fibroblast growth factor on a collagen matrix, a standard cord formation assay was used.

[7] = system: bovine pulmonary endothelial cells; test: Growth inhibition of endothelial cells in vitro; format: cell-based; conditions: 1 μg/ml
ELC = ELC MTT; format: cell-based; conditions: Table II; read-out: ELC MTT, Minimum Effective Concentration
[8] = Fasting blood glucose in mice; format: in vivo, male CD-1 mice; conditions: total dose 20 mg/kg i.v. (2 × 10 mg/kg), 30 min. after 2d dose
Experimental: To study the effect of steroid administrator or the NHE responsible for secretion of insulin, several of the aminosterols from shark liver were administered to fasting mice. Male CD-1 mice were assigned to one of four treatment groups. Whole blood glucose was tested using glucometer (Lifescan Glucometer II and One Touch test strips). Statistical analysis was via one-way analysis of variance (ANOVA) followed by subsequent Bonferonni's t-test.

[9] = system: human umbilical venous endothelial cells; test: LPS-induced neutrophil adherence to human umbilical venous endothelial cells; conditions: 10 μg, 1.0 μg, or 0.1 μg; LPS or TNF-α
Experimental: In these experiments, approximately 2×10^5 human umbilical venous cells (passage 2-6) were plated per well. The cells were grown in serum-free media overnight. For induction, either TNF-α (40 ng/ml) was added to endothelial cells for 6 hours prior to adding neutrophils or LPS (100 ng/ml) was added for 4-6 hours. […] After activation of the endothelial cells, approximately 50×10^6 neutrophils were added per well. The plates were gently rocked for 30 minutes at room temperature, followed by removal of the media and washing in serum-free media three times and then photographing of each well. […] A monoclonal Ab to ICAM-1 was a positive control.

rabbit NHE1 = test: NHE1 inhibition, internal pH in PS120 fibroblasts expressing rabbit NHE1; format: cell-based; conditions: 5 μg/ml squalamine, acid-preloaded
Experimental: as §1

[10] = system: human foreskin fibroblasts; test: Growth inhibition of fibroblasts in vitro; format: cell-based; conditions: 10 μg/ml
[11] = system: human coronary artery smooth muscle; test: Growth of human coronary artery smooth muscle in vitro; format: cell-based; conditions: in vitro
Source text: Aminosterols of the invention may also have utility in inhibiting the growth factor mediated proliferation of smooth muscle within the artery. Following coronary angioplasty, reocclusion commonly occurs, secondary to reparative proliferation of the vascular smooth muscle within the wall of the surgically manipulated blood vessel. This process generally takes place over the course of 7-10 days. To evaluate whether an agent could prevent the growth factor mediated proliferation of smooth muscle within the artery, compound 1436 was evaluated in vitro for its effect on the proliferation of human coronary artery smooth muscle. Results for compound 1436 are shown in FIG. 13, and those for squalamine are shown in FIG. 14, with FIG. 15 being a composite logarithmic plot.

[12] = 20 μg applied, some vascular irritation noted
[13] = 40 μg applied, some vascular irritation noted

## C[C@H](CCC(=O)O)[C@H]1CC[C@H]2[C@@H]3CC[C@H]4C[C@@H](NCCCNCCCCN)CC[C@]4(C)[C@H]3CC[C@]12C [Compound 319]
[1]; 0.001 μg applied
  Vitelline capillary regression: +/-
[1]; 0.01 μg applied
  Vitelline capillary regression: +
[1]; 0.1 μg applied
  Vitelline capillary regression: +
[1]; 1 μg applied
  Vitelline capillary regression: +
[1]; 10 μg applied
  Vitelline capillary regression: +
[2]
  Tadpole assay, observed effects: common vascular occlusive effect
Rabbit NHE3
  Potency as an NHE inhibitor compared with squalamine: superior to squalamine
B16 melanoma; compound 319, subcutaneous, intraperitoneal (FIG. 6 legend)
  Control of B16 in C57B mice: control of B16 in C57B mice to an extent almost comparable to squalamine
Mouse IV PK study
  half-life: about 14 minute

## CC(C)[C@@H](CC[C@@H](C)[C@H]1CC[C@H]2[C@@H]3[C@H](O)C[C@H]4C[C@@H](NCCCNCCCCN)CC[C@]4(C)[C@H]3CC[C@]12C)OS(=O)(=O)O [Compound 1256]
Human NHE1
  Inhibition of human NHE1: no inhibitory activity; also recorded: lack of inhibition of human NHE1
[3]; 3-day CAM, 0.65 μg
  Inhibition of CAM vessel neovascularization: inhibition of CAM vessel neovascularization
[3]; 0.65 μg applied
  Percentage positive, Assay 1: 28%
[3]; 1.25 μg applied
  Percentage positive, Assay 1: 18%
  Percentage positive, Assay 2: 18%
  Percentage positive, Mean: 18%
[3]; 2.5 μg applied
  Percentage positive, Assay 1: 35%
  Percentage positive, Assay 2: 18%
  Percentage positive, Mean: 27%
[3]; 5.0 μg applied
  Percentage positive, Assay 1: 91%
  Percentage positive, Assay 2: 57%
  Percentage positive, Mean: 74%
[3]; 20 μg applied
  Percentage positive, Mean: 55%
[3]; [12]
  Percentage positive, Assay 1: 52%
  Percentage positive, Assay 2: 58%
[3]; 40 μg applied
  Percentage positive, Mean: 32%
[3]; [13]
  Percentage positive, Assay 1: 50%
  Percentage positive, Assay 2: 13%
[3]; 13-day embryo, 5.0 μg applied
  Percentage positive: 0/26
[3]; 13-day old chick, ten times that amount
  Inhibition of CAM vessel neovascularization: no inhibitory effect
[4]
  Growth inhibition of epithelial cells: no effect
[1]; 0.001 μg applied
  Vitelline capillary regression: 0
[1]; 0.01 μg applied
  Vitelline capillary regression: +
[1]; 0.1 μg applied
  Vitelline capillary regression: +
[1]; 1 μg applied
  Vitelline capillary regression: +
[1]; 10 μg applied
  Vitelline capillary regression: +
[1]; 0.1 ml in 15% Ficol in PBS, listed as Squalamine
  Hemorrhage / hemolysis in chick embryo: No hemorrhage was seen; also recorded: absence of hemolysis
[1]; 3- to 5-day chick embryo
  Effect on chick embryo vessels: disrupt vitelline capillaries in 3- to 5-day chick embryos
[1]; Table II
  Chick embryo diss. assay, Minimum Effective Concentration: 0.01 µg
[5]
  Tadpole E (epithelial): -
  Tadpole GI (gastrointestinal): -
  Tadpole M (melanocytes): -
  Tadpole Mus (muscle): -
  Tadpole V (vascular): +
Human melanoma 1205Lu
  Tumor growth after cessation of treatment: tumor growth continued at a rate similar to untreated controls
Human melanoma 1205Lu; 10, 20, 40 mg/kg/d, listed as Squalamine
  Suppression of growth of melanoma 1205Lu: suppress the growth of melanoma 1205Lu in RAG-1 mice in a dose-dependent fashion; also recorded: clear suppression of tumor growth in a dose-dependent fashion
[6]
  Effect on cell viability or proliferation: does not appear to profoundly affect cell viability or proliferation
[7]
  Growth inhibition of bovine pulmonary endothelial cells (BPE): inhibited the growth of bovine pulmonary artery endothelial cells (BPE)
ELC
  minimal effective concentration: 13.2 µg/mL
[8]
  Fasting Blood Glucose Mean ± SEM: 65 ± 7.3 mg/dL
[9]
  Inhibition of neutrophil adherence: no inhibition
Rabbit NHE1
  Inhibition of rabbit NHE1: no inhibitory activity; also recorded: lack of inhibition of rabbit sodium/proton exchanger isoform 1 (NHE1)
[10]
  Growth inhibition of fibroblasts: no effect
[2]
  Tadpole assay, observed effects: Vascular occlusion in fine capillaries of tail; also recorded: No effect on vascular flow through hands or feet
  Tadpole time to death: ≤ 2 h
[2]; listed as squalamine
  Tadpole assay, observed effects: blood flow through the capillaries of the tail shut down; also recorded: unaltered blood flow through the fine capillaries of the hands and feet; also recorded: common vascular occlusive effect
Rabbit NHE3; 5 μg/ml squalamine, acid-preloaded and not acid-preloaded cells
  Inhibition of NHE3: inhibited NHE3 with respect to proton concentration at both Km and Vmax levels
Rabbit NHE3; 5 μg/ml, not acid-preloaded
  Effect on resting pH: causes the cell to drop to a lower pH in its presence before activation of the pump occurs
Rabbit NHE3; NHE3 vs NHE1, listed as squalamine
  NHE isoform specificity: inhibits NHE3, but not NHE1; also recorded: specificity for NHE3 over NHE1
B16 melanoma; squalamine
  Body weight and hematologic parameters: no significant depression
B16 melanoma; squalamine 5 mg/kg/day
  Impact on tumor volume: no significant impact on tumor volume
B16 melanoma; squalamine 15 mg/kg/day, compound 1436 alone in a tolerable schedule
  Tumor growth effect of single agent compared with combination: Neither administration of squalamine at 15 mg/kg/day nor compound 1436 alone in a tolerable schedule could achieve this effect
B16 melanoma; squalamine, subcutaneous, intraperitoneal or oral
  Suppression of tumor volume: dose-dependent suppression of tumor volume
[11]
  Suppression of growth of human coronary artery smooth muscle: suppress in vitro the growth of human coronary artery smooth muscle

Reference: patent US5840936A, “Aminosterol compounds useful as inhibitors of the sodium/proton exchanger (NHE)” (priority 1995, dated 1998)
